Measurements taken from ChEMBL document CHEMBL5244235, “Diarylpentanoids with antitumor activity: A critical review of structure-activity relationship studies” (Eur J Med Chem, 2020).
Values belong to the molecule of their own block, whether it stands above or below them.

Assays:
MDA-MB-231 = assay: Growth inhibition of human MDA-MB-231 cells measured after 72 hrs by microplate reader analysis; type: functional
RPMI-7951 = assay: Growth inhibition of human RPMI-7951 cells measured after 72 hrs by microplate reader analysis; type: functional, cell-based
[1] = Antiproliferative activity against human Molt 4/C8 cells assessed as cell growth inhibition; type: functional, cell-based; settings: Molt4/C8
CCRF-CEM = assay: Antiproliferative activity against human CEM cells assessed as cell growth inhibition; type: functional, cell-based
L1210 = assay: Antiproliferative activity against mouse L1210 cells assessed as cell growth inhibition; type: functional, cell-based
P388 = assay: Antiproliferative activity against mouse P388 cells assessed as cell growth inhibition; type: functional, cell-based
HuCCT-1 = assay: Antiproliferative activity against human HuCCT-1 cells assessed as cell growth inhibition measured after 72 hrs; type: functional, cell-based; settings: HuCCT-1, 72 h
ACHN = assay: Antiproliferative activity against human ACHN cells assessed as cell growth inhibition measured after 72 hrs; type: functional, cell-based
8505C = assay: Antiproliferative activity against human 8505C cells assessed as cell growth inhibition measured after 72 hrs; type: functional, cell-based
HCT-116 = assay: Antiproliferative activity against human HCT-116 cells assessed as cell growth inhibition measured after 72 hrs; type: functional, cell-based; settings: HCT-116, 72 h
Huh-7 = assay: Antiproliferative activity against human Huh-7 cells assessed as cell growth inhibition measured after 72 hrs; type: functional, cell-based; settings: Huh-7, 72 h
[2] = Antiproliferative activity against human OVK18 cells assessed as cell growth inhibition measured after 72 hrs; type: functional, cell-based; settings: OVK18, 72 h
PC-3 = assay: Antiproliferative activity against human PC-3 cells assessed as cell growth inhibition measured after 72 hrs; type: functional, cell-based; settings: PC-3, 72 h
[3] = Antiproliferative activity against human SH-10-TC cells assessed as cell growth inhibition measured after 72 hrs; type: functional, cell-based
A-431 = assay: Antiproliferative activity against human A-431 cells assessed as cell growth inhibition measured after 72 hrs; type: functional, cell-based; settings: A-431, 72 h
DLD-1 = assay: Antiproliferative activity against human DLD-1 cells assessed as cell growth inhibition measured after 72 hrs; type: functional, cell-based; settings: DLD-1, 72 h
MCF7 = assay: Antiproliferative activity against human MCF7 cells assessed as cell growth inhibition measured after 72 hrs; type: functional, cell-based; settings: MCF7, 72 h
GCIY = assay: Antiproliferative activity against human GCIY cells assessed as cell growth inhibition measured after 72 hrs; type: functional, cell-based
[4] = Antiproliferative activity against human PK-1 cells assessed as cell growth inhibition measured after 72 hrs; type: functional, cell-based; settings: PK-1, 72 h
A549 = assay: Antiproliferative activity against human A549 cells assessed as cell growth inhibition measured after 72 hrs; type: functional, cell-based; settings: A549, 72 h
G-361 = assay: Antiproliferative activity against human G-361 cells assessed as cell growth inhibition measured after 72 hrs; type: functional, cell-based; settings: G-361, 72 h

GI50 (MDA-MB-231): 800 nM
SMILES: O=C1/C(=C/c2ccccc2F)CNC/C1=C\c1ccccc1F
IC50 (RPMI-7951; RPMI-7951, 72 h): 700 nM

IC50 (CCRF-CEM): 1610 nM
IC50 (L1210): 5340 nM
SMILES: O=C1/C(=C/c2ccccc2)CN(C(=O)c2ccc(/C=C/C(=O)c3ccc([N+](=O)[O-])cc3)cc2)C/C1=C\c1ccccc1
IC50 [1]: 1600 nM

IC50 (P388): 221 nM
IC50 (CCRF-CEM): 1610 nM
IC50 (L1210): 5340 nM
SMILES: O=C1/C(=C/c2ccccc2)CN(C(=O)c2ccc(/C=C/C(=O)c3ccccc3)cc2)C/C1=C\c1ccccc1
IC50 [1]: 1600 nM

IC50 (ACHN): > 50000 nM
IC50 (HCT-116): > 50000 nM
IC50 (Huh-7): > 50000 nM
IC50 (PC-3): > 50000 nM
IC50 (A-431): > 50000 nM
IC50 (DLD-1): > 50000 nM
IC50 (MCF7): > 50000 nM
IC50 (A549): > 50000 nM
SMILES: COc1cc(CCC(O)CCc2cc(OC)c(OC)c(OC)c2)cc(OC)c1OC
IC50 (HuCCT-1): > 50000 nM
IC50 (8505C): > 50000 nM
IC50 [2]: > 50000 nM
IC50 [3]: > 50000 nM
IC50 (GCIY): > 50000 nM
IC50 [4]: > 50000 nM
IC50 (G-361): > 50000 nM

GI50 (MDA-MB-231): 800 nM
SMILES: O=C1/C(=C/c2ccccc2O)COC/C1=C\c1ccccc1O
GI50 (RPMI-7951; RPMI-7951, time 72 hrs): 800 nM

IC50 (P388): 221 nM
IC50 (CCRF-CEM): 1610 nM
IC50 (L1210): 5340 nM
SMILES: O=C1/C(=C/c2ccccc2)CN(C(=O)c2ccc(/C=C/C(=O)c3ccc(Cl)c(Cl)c3)cc2)C/C1=C\c1ccccc1
IC50 [1]: 1600 nM

IC50 (P388): 221 nM
IC50 (CCRF-CEM): 1610 nM
SMILES: O=C1/C(=C/c2ccccc2)CN(C(=O)c2ccc(/C=C/C(=O)c3ccc(O)cc3)cc2)C/C1=C\c1ccccc1
IC50 [1]: 1600 nM

IC50 (P388): 221 nM
IC50 (CCRF-CEM): 1610 nM
IC50 (L1210): 5340 nM
SMILES: O=C1/C(=C/c2ccccc2)CN(C(=O)/C=C/c2ccc(Cl)cc2)C/C1=C\c1ccccc1
IC50 [1]: 1600 nM

IC50 (P388): 221 nM
IC50 (CCRF-CEM): 1610 nM
IC50 (L1210): 5340 nM
SMILES: O=C1/C(=C/c2ccccc2)CN(C(=O)/C=C/c2ccc([N+](=O)[O-])cc2)C/C1=C\c1ccccc1
IC50 [1]: 1600 nM

IC50 (P388): 221 nM
IC50 (CCRF-CEM): 1610 nM
IC50 (L1210): 5340 nM
SMILES: Cc1ccc(/C=C/C(=O)N2C/C(=C\c3ccccc3)C(=O)/C(=C/c3ccccc3)C2)cc1
IC50 [1]: 1600 nM

IC50 (P388): 221 nM
IC50 (CCRF-CEM): 1610 nM
IC50 (L1210): 5340 nM
SMILES: COc1ccc(/C=C/C(=O)N2C/C(=C\c3ccccc3)C(=O)/C(=C/c3ccccc3)C2)cc1
IC50 [1]: 1600 nM

IC50 (P388): 221 nM
IC50 (CCRF-CEM): 1610 nM
IC50 (L1210): 5340 nM
SMILES: Cc1ccc(C(=O)/C=C/c2ccc(C(=O)N3C/C(=C\c4ccccc4)C(=O)/C(=C/c4ccccc4)C3)cc2)cc1
IC50 [1]: 1600 nM

IC50 (ACHN): 1000 nM
IC50 (HCT-116): 1000 nM
IC50 (Huh-7): 1000 nM
IC50 (PC-3): 1000 nM
IC50 (A-431): 1000 nM
IC50 (DLD-1): 1000 nM
IC50 (MCF7): 1000 nM
IC50 (A549): 1000 nM
SMILES: CCOC(C)COc1c(OC)cc(/C=C/C(=O)/C=C/c2cc(OC)c(OC)c(OC)c2)cc1OC (configuration not stated)
IC50 (HuCCT-1): 1000 nM
IC50 (8505C): 1000 nM
IC50 [2]: 1000 nM
IC50 [3]: 1000 nM
IC50 (GCIY): 1000 nM
IC50 [4]: 1000 nM
IC50 (G-361): 1000 nM

IC50 (P388): 221 nM
IC50 (CCRF-CEM): 1610 nM
IC50 (L1210): 5340 nM
SMILES: COc1ccc(C(=O)/C=C/c2ccc(C(=O)N3C/C(=C\c4ccccc4)C(=O)/C(=C/c4ccccc4)C3)cc2)cc1OC
IC50 [1]: 1600 nM

IC50 (P388): 221 nM
IC50 (CCRF-CEM): 1610 nM
IC50 (L1210): 5340 nM
SMILES: COc1ccc(C(=O)/C=C/c2ccc(C(=O)N3C/C(=C\c4ccccc4)C(=O)/C(=C/c4ccccc4)C3)cc2)cc1
IC50 [1]: 1600 nM

IC50 (P388): 221 nM
IC50 (CCRF-CEM): 1610 nM
IC50 (L1210): 5340 nM
SMILES: COc1ccc(/C=C/C(=O)N2C/C(=C\c3ccccc3)C(=O)/C(=C/c3ccccc3)C2)cc1OC
IC50 [1]: 1600 nM

IC50 (P388): 221 nM
IC50 (CCRF-CEM): 1610 nM
IC50 (L1210): 5340 nM
SMILES: COc1cc(/C=C/C(=O)N2C/C(=C\c3ccccc3)C(=O)/C(=C/c3ccccc3)C2)cc(OC)c1OC
IC50 [1]: 1600 nM

IC50 (P388): 221 nM
IC50 (CCRF-CEM): 1610 nM
IC50 (L1210): 5340 nM
SMILES: O=C1/C(=C/c2ccccc2)CN(C(=O)c2ccc(/C=C/C(=O)c3ccc(Cl)cc3)cc2)C/C1=C\c1ccccc1
IC50 [1]: 1600 nM

IC50 (P388): 221 nM
IC50 (CCRF-CEM): 1610 nM
IC50 (L1210): 5340 nM
SMILES: O=C1/C(=C/c2ccccc2)CN(C(=O)/C=C/c2ccc(Cl)c(Cl)c2)C/C1=C\c1ccccc1
IC50 [1]: 1600 nM

IC50 (ACHN): 1000 nM
IC50 (HCT-116): 1000 nM
IC50 (Huh-7): 1000 nM
IC50 (PC-3): 1000 nM
IC50 (A-431): 1000 nM
IC50 (DLD-1): 1000 nM
IC50 (MCF7): 1000 nM
IC50 (A549): 1000 nM
SMILES: COc1cc(/C=C/C(=O)/C=C/c2cccc(O)c2)cc(OC)c1OC
IC50 (HuCCT-1): 1000 nM
IC50 (8505C): 1000 nM
IC50 [2]: 1000 nM
IC50 [3]: 1000 nM
IC50 (GCIY): 1000 nM
IC50 [4]: 1000 nM
IC50 (G-361): 1000 nM

IC50 (ACHN): 1000 nM
IC50 (HCT-116): 1000 nM
IC50 (Huh-7): 1000 nM
IC50 (PC-3): 1000 nM
IC50 (A-431): 1000 nM
IC50 (DLD-1): 1000 nM
IC50 (MCF7): 1000 nM
IC50 (A549): 1000 nM
SMILES: CCOC(C)Oc1cccc(/C=C/C(=O)/C=C/c2cc(OC)c(OC)c(OC)c2)c1 (configuration not stated)
IC50 (HuCCT-1): 1000 nM
IC50 (8505C): 1000 nM
IC50 [2]: 1000 nM
IC50 [3]: 1000 nM
IC50 (GCIY): 1000 nM
IC50 [4]: 1000 nM
IC50 (G-361): 1000 nM
